Data as given in US6410545B1, “Lipid lowering quinazoline dietary supplement composition” (Parker Hughes Institute, priority 1998, dated 2002).

Legend:
[1] = system: hypercholesterolemic C57B⅙ mice; assay: Serum total cholesterol in hypercholesterolemic C57B⅙ mice on Paigen's cocoa butter diet; format: in vivo; conditions: apo e+/+ C57B1/6 mice, cocoa butter diet two weeks, then drug 1 week at 1.6 mg/kg/day i.p.
Experimental: Three- to four-week old C57B⅙ male mice (Taconic, Germantown, N.Y., USA) were kept in micro-isolator cages on a 12-hour day/night cycle and fed the Paigen's cocoa butter diet (15.8% fat, 1.25% cholesterol, and 0.5% sodium cholate) (Harlan Teklad, Madison, Wis., USA) for two weeks prior to initiation of lipid lowering therapy. Paigen's diet is described in Nishina et.al., 1993, J. Lipid Res. 34: 1413-1422.
(§1) Animals were treated with test compounds by intraperitoneal injection daily for 7 days. A range of doses was administered. Control animals received vehicle alone. The effect of quinazoline derivatives on total cholesterol, LDL, HDL, liver enzymes, and glucose was analyzed. The mice tissues were also examined histologically.
(§2) Serum total cholesterol was measured enzymatically using the cholesterol kit from Sigma Chemical Co. (St. Louis, Mo., USA). For liver tissue lipid measurements, lipids were extracted from homogenized hepatic tissues using the method of Bligh and Dyer (Bligh, et al., Can. J. Biochem. Phys. 1959, 37:911-917). One gram of liver tissue was homogenized in 1 ml of distilled water and extracted with 4 ml of chloroform/methanol (1:1, v/v). The chloroform phase containing the lipids was evaporated under a stream of nitrogen, the lipids dissolved in 100 μL of isopropanol, and subjected to cholesterol determination as described above. Triglyceride (TG) contents were determined using the TG kit from Sigma Chemical Co.
A high cholesterol and high fat diet was used to induce hypercholesterolemia in C57B⅙mice, using the methods described by Paigen, et al. (Nishina, et al., 1993, J. Lipid Res. 34:1413-1422) and as described for Example 1.

apo e−/− mice = assay: Serum total cholesterol in apolipoprotein E deficient mice; format: in vivo; conditions: apo e−/− (C57B1/6) mice, Western diet two weeks, then drug 1 week at 40 mg/kg/day
Experimental: Three- to four-week old apolipoprotein E deficient (apo E^−/−) mice were the progeny of breeding pairs of apo E knockout (apo EKO) mice obtained from Jackson Labs. (Bar Harbor, Me., USA). Mice were fed either regular rodent chow (5% fat and 0% cholesterol) (Teklad-LM 485, Harlan Teklad, Madison, Wis., USA), the Paigen's cocoa butter diet, or the Western diet (21.22% fat and 0.2% cholesterol) (Harlan Teklad, Madison, Wis., USA) for two weeks prior to treatment.
as §1, §2
On regular rodent chow, the serum total cholesterol level of apo e^−/− mice was 836±57 mg/dL (n=47). After one week therapy with 8 mg/kg/day WHI-P164 (n=12), the mean serum total cholesterol level was reduced to 551±29 mg/dL (p=0.02).
When challenged with a cholesterol-rich diet, these animals developed frank hypercholesterolemia due to delayed clearance of intestinal chylomicrons which shuttle the dietary cholesterol from the intestine to the liver. In the present study, all of the 46 ApoE-deficient mice that were fed Western diet (14) became severely hypercholesterolemic with a mean serum total cholesterol level of 1491±59 mg/dL. One week WHI-P164 therapy reduced the mean serum total cholesterol level of hypercholesterolemic apo e^−/− mice to 1194±84 mg/dL (p=O.006) at a dose level of 8 mg/kg/day (n=19) and to 876±57 mg/dL (p<0.0001) at a dose level of 40 mg/kg/day (n=17) (Table 3).

SMILES | Serum total cholesterol [1] [mg/dL] | Serum total cholesterol (apo e−/− mice) [mg/dL]
COc1cc2ncnc(Nc3cc(Br)c(O)c(Br)c3)c2cc1OC [WHI-P97, 4-(3′,5′-Dibromo-4′-hydroxylphenyl)-amino-6,7-dimethoxyquinazoline] | 413 ± 18 | 1129 ± 46
COc1cc2ncnc(Nc3ccc(C)c(Br)c3)c2cc1OC [WHI-P111, 4-(3′-Bromo-4′-methylphenyl)-amino-6,7-dimethoxyquinazoline] | 406 ± 11 | 1425 ± 92
COc1cc2ncnc(Nc3ccc(O)cc3)c2cc1OC [WHI-P131, 4-(4′-Hydroxylphenyl)-amino-6,7-dimethoxyquinazoline] | 433 ± 20 | 1532 ± 77
COc1cc2ncnc(Nc3ccccc3O)c2cc1OC [WHI-P132, 4-(2′-Hydroxylphenyl)-amino-6,7-dimethoxyquinazoline] | – | 1774 ± 61
COc1cc2ncnc(Nc3ccc(O)c(Br)c3)c2cc1OC [WHI-P154, 4-(3′-Bromo-4′-hydroxylphenyl)-amino-6,7-dimethoxyquinazoline] | – | 1492 ± 110
COc1cc2ncnc(Nc3ccc(O)c(Cl)c3)c2cc1OC [WHI-P197, 4-(3′-Chloro-4′-hydroxylphenyl)-amino-6,7-dimethoxyquinazoline] | 372 ± 20 | 1621 ± 146
